Test results: patent publication US9034886B2, “4-aminoquinazoline derivatives and uses thereof” (Shanghai Institute of Pharmaceutical Industry, priority 2011, dated 2015)

Experiments:
[1] = system: HDACs; assay: In vitro inhibition of HDACs (HDAC Inhibitor Drug Screening Kit, Biovision K340-100); assay type: biochemical
Experimental: The in vitro inhibitory activities of the compounds towards HDACs were tested according to the instructions in the HDAC Inhibitor Drug Screening Kit (Biovision/Catalog #K340-100).
(1) The compounds to be tested were each individually prepared as 2 mM, 200 μM and 40 μM solutions and their inhibitory activities at these concentrations were tested.

[2] = target: HDAC1 (Homo sapiens (Human), UniProt Q13547); assay: In vitro inhibition of subtype HDAC1 (HDAC1 Inhibitor Drug Screening Kit, Biovision); assay type: biochemical; conditions: for inhibition at 1 µM / inhibition at 10 µM: read-out: % Inhibition towards HDAC1; for inhibitory activity against HDAC1 compared with MS-275: both concentrations 10 μM and 1 μM
Experimental: The in vitro inhibitory activities of the compounds towards the subtype HDAC1 were tested according to the instructions in the HDAC1 Inhibitor Drug Screening Kit (Biovision).
(1) The compounds to be tested were each individually prepared as 10 μM and 1 μM solutions and their inhibitory activities at these concentrations were tested.
Each dilution sample was placed in two wells and the enzyme inhibition IC50 of the compound was tested.

[3] = system: Hut78 T lymphocytic leukemia cells; assay: In vitro anti-proliferative effect, CCK-8 method, Hut78; assay type: cell-based; conditions: Homo sapiens, HuT78, read-out: Hut-78 (inhibition %)
Experimental: (§1) The inhibitory activities of the compounds towards Hut78 T lymphocytic leukemia cells, Jurkat E6-1 human T-cell lymphoma, PANC-1 human pancreatic cancer cells, A549 human lung cancer cells, K562 human chronic myelogenous leukemia cells, Hep3B2.1-7 human liver cancer cells, MDA-MB-435s human breast cancer cells. Colo320 human colorectal cancer cell lines, and PC-3 human prostate cancer at two concentrations of 100 μM and 10 μM were determined. The inhibition percentages were obtained through CCK-8 method.

[4] = system: PANC-1 human pancreatic cancer cells; assay: In vitro anti-proliferative effect, CCK-8 method, PANC-1; assay type: cell-based; conditions: Homo sapiens, PANC-1
Experimental: as §1

[5] = system: Jurkat E6-1 human T-cell lymphoma; assay: In vitro anti-proliferative effect, CCK-8 method, Jurkat E6-1; assay type: cell-based; conditions: Homo sapiens, Jurkat E6.1
Experimental: as §1

[6] = system: K562 human chronic myelogenous leukemia cells; assay: In vitro anti-proliferative effect, CCK-8 method, K562; assay type: cell-based; conditions: Homo sapiens, K562
Experimental: as §1

[7] = system: A549 human lung cancer cells; assay: In vitro anti-proliferative effect, CCK-8 method, A549; assay type: cell-based; conditions: Homo sapiens, A549
Experimental: as §1

[8] = system: MDA-MB-435s human breast cancer cells; assay: In vitro anti-proliferative effect, CCK-8 method, MDA-MB-435s; assay type: cell-based; conditions: Homo sapiens, MDA-MB-435S
Experimental: as §1

[9] = system: Hep3B2.1-7 human liver cancer cells; assay: In vitro anti-proliferative effect, CCK-8 method, Hep3B; assay type: cell-based; conditions: Homo sapiens, Hep3B cell strain, CCK-8 method; for inhibition at 10 µM: compound at 10 μM; for inhibition at 100 µM: compound at 100 μM
Experimental: as §1

[10] = system: PC-3 human prostate cancer; assay: In vitro anti-proliferative effect, CCK-8 method, PC-3; assay type: cell-based; conditions: Homo sapiens, PC-3 cell strain, CCK-8 method; for inhibition at 10 µM: compound at 10 μM; for inhibition at 100 µM: compound at 100 μM
Experimental: as §1

[11] = system: Colo320 human colorectal cancer cell lines; assay: In vitro anti-proliferative effect, CCK-8 method, Colo320; assay type: cell-based; conditions: Homo sapiens, COLO 320, Colo320 cell strain, CCK-8 method; for inhibition at 10 µM: compound at 10 μM; for inhibition at 100 µM: compound at 100 μM
Experimental: as §1

HDAC1, sequence (Q13547 whole entry): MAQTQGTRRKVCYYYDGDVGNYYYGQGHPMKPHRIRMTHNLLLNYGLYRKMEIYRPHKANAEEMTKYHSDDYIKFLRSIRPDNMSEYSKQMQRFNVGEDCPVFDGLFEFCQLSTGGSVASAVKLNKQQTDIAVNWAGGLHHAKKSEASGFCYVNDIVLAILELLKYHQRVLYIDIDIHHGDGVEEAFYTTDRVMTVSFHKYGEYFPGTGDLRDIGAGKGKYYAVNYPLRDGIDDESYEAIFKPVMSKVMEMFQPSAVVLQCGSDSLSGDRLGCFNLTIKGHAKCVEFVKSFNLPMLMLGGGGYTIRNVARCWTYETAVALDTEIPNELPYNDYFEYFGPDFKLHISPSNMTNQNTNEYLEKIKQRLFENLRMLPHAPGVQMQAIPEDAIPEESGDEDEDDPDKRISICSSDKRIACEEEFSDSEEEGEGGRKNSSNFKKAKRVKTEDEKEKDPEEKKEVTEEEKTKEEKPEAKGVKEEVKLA

| SMILES | Inhibition percentage (%) towards HDACs ([1]; 40 μM) [%] | Inhibition percentage (%) towards HDACs ([1]; 200 μM) [%] | Inhibition percentage (%) towards HDACs ([1]; 2 mM) [%] | inhibition at 1 µM [2] [%] | inhibition at 10 µM [2] [%] | inhibition at 10 µM [3] [%] | inhibition at 100 µM [3] [%] | inhibition at 10 µM [4] [%] | inhibition at 100 µM [4] [%] | inhibition at 10 µM [5] [%] | inhibition at 100 µM [5] [%] | inhibition at 10 µM [6] [%] | inhibition at 100 µM [6] [%] | inhibition at 10 µM [7] [%] | inhibition at 100 µM [7] [%] | inhibition at 10 µM [8] [%] | inhibition at 100 µM [8] [%] | inhibition at 10 µM [9] [%] | inhibition at 100 µM [9] [%] | inhibition at 10 µM [10] [%] | further results |
| --- | --- | --- | --- | --- | --- | --- | --- | --- | --- | --- | --- | --- | --- | --- | --- | --- | --- | --- | --- | --- | --- |
| COc1cccc2c(Nc3ccc(C(=O)Nc4cc(F)ccc4N)cc3)ncnc12 [Compound V-10, N-(2-amino-5-fluorophenyl)-4-(8-methoxy-quinazoline-4-amino)benzamide] | 12.0 | 32.9 | 77.2 | 45.2 | 62.6 | 8.1 | 47.5 | 13 | 19 | 25.3 | 72.8 | 45 | 62.1 | -4.4 | 40.1 | 9.4 | 82.9 | 3.7 | 31.3 | 13.7 | IC50 [1]: 1.04 µM; inhibitory activity according to in vitro IC50 value against HDACs compared with MS-275 [1]: better inhibitory activities than MS-275; inhibition at 100 µM [10]: 57.4%; inhibition at 10 µM [11]: 6.4%; inhibition at 100 µM [11]: 23.3% |
| Nc1ccccc1NC(=O)c1ccc(Nc2ncnc3ccc(F)cc23)cc1 [Compound V-12, N-(2-aminophenyl)-4-(6-fluoroquinazoline-4-amino)benzamide] | 16.8 | 43.0 | 85.2 | 15 | 49.1 | 62.5 | 62.5 | 15.8 | 21.9 | 25 | 87.4 | 49.3 | 69.8 | -9 | 55.1 | 5.7 | 77.2 | 4.7 | 67.1 | 25.5 | IC50 [1]: 0.92 µM; inhibition at 100 µM [10]: 61.3%; inhibition at 10 µM [11]: 2.4%; inhibition at 100 µM [11]: 46.1% |
| COCCOc1cc2ncnc(Nc3ccc(C(=O)Nc4ccccc4N)cc3)c2cc1OCCOC [Compound V-15, N-(2-aminophenyl)-4-(6,7-dimethoxyethoxyquinazoline-4-amino)benzamide] | 13.7 | 51.5 | 61.4 | 67.1 | 78.8 | 70.7 | 80.4 | 7.2 | 0.5 | 33.7 | 13.9 | 27.2 | 11.9 | 4.7 | 3.5 | 21.6 | 21 | 16.3 | 11.2 | 10.9 | IC50 [1]: 9.4 µM; inhibitory activity against HDAC1 compared with MS-275 [2]: superior to that of MS-275; inhibition at 100 µM [10]: 8.6%; inhibition at 10 µM [11]: 15.3%; inhibition at 100 µM [11]: 3.9% |
| COCCOc1cc2ncnc(Nc3ccc(C(=O)Nc4ccncc4N)cc3)c2cc1OCCOC [Compound V-16] | 24.8 | 56.8 | 58.6 | 59.1 | 87.4 | 26.2 | 20.7 | 8 | 7.8 | 37.2 | 22.1 | 42.8 | 29.7 | 48.7 | 65.7 | 49.8 | 50.4 | 24.8 | 13.5 | 5.1 | IC50 [1]: 6.89 µM; inhibitory activity against HDAC1 compared with MS-275 [2]: superior to that of MS-275; inhibition at 100 µM [10]: 3.4%; inhibition at 10 µM [11]: -2.3%; inhibition at 100 µM [11]: -17.1% |
| CS(=O)(=O)CCNCc1ccc(-c2ccc3ncnc(Nc4ccc(C(=O)Nc5ccccc5N)cc4)c3c2)o1 [Compound V-19, N-(2-aminophenyl)-4-[6-(5-((2-(methylsulfonyl)ethylamino)methyl)furyl)quinazoline-4-amino]benzamide] | 22.7 | 57.8 | 72.3 | 47.6 | 80.2 | 43 | 77 | 20.2 | 26.2 | 58.3 | 80.9 | 54.3 | 85.8 | 6.3 | 37.3 | 33 | 77 | 25.4 | 49.9 | 50.2 | IC50 [1]: 1.37 µM; inhibitory activity against HDAC1 compared with MS-275 [2]: superior to that of MS-275; inhibition at 100 µM [10]: 61%; inhibition at 10 µM [11]: 12.9%; inhibition at 100 µM [11]: 40.1% |
| CC(=O)Nc1ccc2ncnc(Nc3ccc(C(=O)Nc4ccccc4N)cc3)c2c1 [Compound V-21, N-(2-aminophenyl)-4-(6-acetamidoquinazoline-4-amino)benzamide] | 10.1 | 39.1 | 79.2 | 55 | 86.9 | 65.2 | 75.6 | 12.5 | 33.3 | 49.3 | 89.7 | 52.2 | 85.2 | 17.1 | 96.4 | 25.2 | 88.8 | 11 | 68.1 | 40.1 | inhibitory activity against HDAC1 compared with MS-275 [2]: superior to that of MS-275; inhibition at 100 µM [10]: 64.2%; inhibition at 10 µM [11]: 9.5%; inhibition at 100 µM [11]: 45.9% |
| COc1cc2ncnc(Nc3ccc(C(=O)Nc4cc(-c5cccs5)ccc4N)cc3)c2cc1OC [Compound V-23, N-[2-amino-5-(2-thienyl)phenyl]-4-(6,7-dimethoxyquinazoline-4-amino)benzamide] | 17.5 | 37.3 | 40.7 | 19.2 | 55.8 | 59.9 | 93.1 | 9.2 | 4 | 4.7 | 52.7 | 12.8 | 61.2 | -7.4 | 6.2 | 21.5 | 42.9 | 1 | 28.1 | 7 | IC50 [2]: 0.178 µM; inhibition at 100 µM [10]: 40.2%; inhibition at 10 µM [11]: 7.3%; inhibition at 100 µM [11]: 5.9% |
